Assay: Lipophilicity (log D7.4), 1-octanol/PBS pH 7.4
Type: physicochemical
Protocol: [^125I]I-NpG-D-PSMA (3.7 kBq) was mixed with equal amounts (3.0 mL) of 1-octanol and PBS buffer (pH 7.4). The mixture was vortexed for 1 min and allowed to stand for 1 min. After repeating the procedure five times, the mixture was centrifuged at 1,500 g (3740, Kubota, Tokyo) for 10 min. Samples (0.2-2 mL) were taken from each phase and their radioactivity was measured with an auto-well γ-counter. The partition coefficient was determined by calculating the ratio of the counts per minute in the 1-octanol phase to that in the buffer phase and expressed as common logarithm. The results represent the mean of three measurements.

logD: -3.14 ± 0.03
Structure (SMILES): O=C(O)CCC(NC(=O)NC(CCCCNC(=O)C(Cc1ccc2ccccc2c1)NC(=O)C(CCC(=O)O)NC(=O)C(CCC(=O)O)NC(=O)COCC(CO)(CO)C[125I])C(=O)O)C(=O)O [[^125I]I-NpG-D-PSMA]
